Values of other authors, collected in patent US7838691B2, “Palmerolides: methods of preparation and derivatives thereof” (Board of Regents, of the University of Texas System, priority 2007, dated 2010).

Legend:
bovine brain V-ATPase = conditions: in vitro
[1] = tested on: several cancer cell lines including melanoma, colon cancer, and renal cancer

CC(C)=CC(=O)N/C=C/C(C)=C/[C@@H](C)[C@H]1C/C(C)=C/C=C/CC[C@H](OC(N)=O)[C@@H](O)/C=C/[C@@H](O)CCC/C=C/C(=O)O1 [Palmerolide A]
IC50 (bovine brain V-ATPase): ~2 nM | cytotoxicity [1]: selective cytotoxin
